Measured values taken from publication PMC8713167, “New Insights into the Structure–Activity Relationship and Neuroprotective Profile of Benzodiazepinone Derivatives of Neurounina-1 as Modulators of the Na^+/Ca^2+ Exchanger Isoforms” (Journal of Medicinal Chemistry, 2021).

Experiments:
NCX1 [1] = target: T1, NCX1 (Canis lupus familiaris, UniProt P23685); assay: High-throughput screening of NCX1 reverse mode, Fluo-4-loaded BHK-NCX1 cells, Na+-free pulse; assay type: cell-based, dog; settings: for Effect on NCX1 activity in the reverse mode (screening, in words): BHK-NCX1, 10 nM and 10 μM; for Fluo-experiments on BHK-NCX1: NCX1 reverse mode, Na+-free, CTL (100), concentration not given (10 nM and 10 μM screened)
T1 construct: expressed in transfected cells; host or cells: BHK (baby hamster kidney) cells, stably transfected

NCX3 [2] = target: T2, NCX3 (Rattus norvegicus, UniProt P70549); assay: High-throughput screening of NCX3 reverse mode, Fluo-4-loaded BHK-NCX3 cells, Na+-free pulse; assay type: cell-based; settings: CTL (100), concentration not given (10 nM and 10 μM screened)
T2 construct: expressed in transfected cells; host or cells: BHK (baby hamster kidney) cells, stably transfected

NCX1 [3] = target: T1, NCX1; assay: Single-cell Fura-2AM video-imaging, Na+-free-induced [Ca2+]i increase in BHK-NCX1 cells; assay type: cell-based, dog; settings: for Fura2-experiments on BHK-NCX1 (dose/effect) / Fura2-experiments on BHK-NCX1 (dose/effect), inhibition: Na+-free-induced [Ca2+]i increase, reverse mode
Description: Furthermore, NCX activity in the reverse mode of operation was also studied on single cell by Fura-2AM video-imaging in BHK-NCX1 and BHK-NCX3 cells (Figures 3 and 4). […] Furthermore, patch-clamp electrophysiology in the whole-cell configuration was used to measure NCX activity both in the forward and reverse mode of operation.
[Ca^2+]i was measured by single-cell computer-assisted video-imaging using Fura-2 acetoxymethyl ester (Fura-2AM). Neurons were loaded with Fura 2AM (10 μM for 30′ at 37 °C). Experiments were carried out with a MicroMax 512BFT cooled CCD camera (Princeton Instruments, Trenton, NJ, USA), LAMBDA 10-2 filter wheeler (Sutter Instruments, Novato, CA), and Meta-Morph/MetaFluor Imaging System software (Universal Imaging, West Chester, PA). Fura-2 fluorescence intensity was measured every 3 s. From each coverslip, 40–60 individual cells were selected and monitored simultaneously. Assuming that the KD for FURA-2 was 224 nM, the equation of Grynkiewicz was used to for calibration.[58]
The NCX reverse mode was determined by switching the normal Krebs medium to Na^+-deficient NMDG+ medium (Na^+-free), as previously reported.[57]
Compounds were solubilized in dimethyl sulfoxide at concentrations of 1 mM, and stock solutions were kept at −20 °C. Appropriate drug dilutions were prepared daily. Statistical analysis was performed with two-way ANOVA, followed by the Newman–Keuls test. Statistical significance was accepted at the 95% confidence level (p < 0.05). Values are expressed as means ± SEM. To obtain EC50’s of newly synthesized compounds and IC50 of compound 4, all data were fitted to the following binding isotherm: […], where X is the drug concentration and n is the Hill coefficient.

NCX1 [4] = target: T1, NCX1; assay: Whole-cell patch-clamp electrophysiology of INCX in BHK-NCX1 cells; assay type: cell-based, dog; settings: CTL100; for Patch-clamp-experiments on BHK-NCX1, forward mode: forward mode (−120 mV); for Patch-clamp-experiments on BHK-NCX1, reverse mode: reverse mode (+60 mV)
[5] = test system: rat primary cortical neurons; assay: Cell viability (MTT) of primary cortical neurons exposed to OGD followed by RX; assay type: cell-based; settings: for Neuroprotection in cortical neurons exposed to OGD + RX (in words): added during OGD and RX, 1 at 10 nM, 14 at 10 μM
Description: Once identified as NCX activity modulators, compounds 1, 4, and 14 were tested on cell viability of primary rat cortical neurons exposed to OGD followed by RX, an experimental condition mimicking hypoxic conditions occurring during stroke. These compounds were added during either OGD or RX phases at the corresponding median effective concentration for their NCX stimulating or inhibiting activity.
Rat cortical neurons were prepared and grown as previously reported.[22],[23] During the exposure to hypoxic conditions, primary cortical neurons at 7/10 DIV were incubated with different concentrations of each previously identified compound. Italian Ministry of Health and the local Animal Care Committee of “Federico II” University of Naples (Italy) approved all animal procedures adopted (D. Lgs. March 4th, 2014 from Italian Ministry of Health; DIR 210/63 UE; 12/2018-UT7).
Hypoxic conditions were induced by exposing rat primary cortical neurons to a oxygen- and glucose-free medium in a humidified atmosphere containing 95% nitrogen and 5% CO2, as previously reported.[22],[23] Cell injury was assessed by MTT analysis. Briefly, neurons were incubated with 1 mL of MTT solution (0.5 mg/mL in PBS). After 1 h of incubation at 37 °C, neurons were dissolved in dimethyl sulfoxide and the rate of MTT variation was measured spectrophotometrically at the wavelength of 540 nm.[22],[57]

primary cortical neurons = assay: Cell viability (MTT) of primary cortical neurons exposed to chemical hypoxia followed by RX; assay type: cell-based, rat
Description: Considering that this represents a more demanding experimental paradigm, compound 1 may be considered an interesting tool with a neuroprotective profile. In fact, its neuroprotective effect in cortical neurons exposed to hypoxic conditions was similar to that produced by ischemic PC,[30],[31] a short stimulus inducing ischemic tolerance in neurons (Figure 6B). Furthermore, to better investigate the neuroprotective profile of compound 1, it was tested in primary cortical neurons exposed to chemical hypoxia, followed by RX, a detrimental condition undermining the mitochondrial function. […] However, the specific role of each mode of operation in the neuroprotective effect remains obscure and very difficult to define in this experimental paradigm. […] Therefore, the excessive activation of the NCX3 forward mode determining Ca^2+ extrusion may negatively counterbalance the activation of its reverse mode, favoring Ca^2+ entrance.
Rat cortical neurons were prepared and grown as previously reported.[22],[23] […]
Chemical hypoxia was reproduced by exposing primary cortical neurons for 45 min to a glucose-free medium containing oligomycin (5 μg/mL) plus 2-DG (2 mM), followed by RX (3 h). […] Cell injury was assessed by MTT analysis at the end of each experiment.

NCX3 [6] = target: T2, NCX3; assay: Whole-cell patch-clamp electrophysiology of INCX in BHK-NCX3 cells; assay type: cell-based; settings: compound 4 at 10 μM (Figures 5B and S1)
NCX3 [7] = target: T2, NCX3; assay: Single-cell Fura-2AM video-imaging, Na+-free-induced [Ca2+]i increase in BHK-NCX3 cells; assay type: cell-based

T2 sequence (P70549 31-927): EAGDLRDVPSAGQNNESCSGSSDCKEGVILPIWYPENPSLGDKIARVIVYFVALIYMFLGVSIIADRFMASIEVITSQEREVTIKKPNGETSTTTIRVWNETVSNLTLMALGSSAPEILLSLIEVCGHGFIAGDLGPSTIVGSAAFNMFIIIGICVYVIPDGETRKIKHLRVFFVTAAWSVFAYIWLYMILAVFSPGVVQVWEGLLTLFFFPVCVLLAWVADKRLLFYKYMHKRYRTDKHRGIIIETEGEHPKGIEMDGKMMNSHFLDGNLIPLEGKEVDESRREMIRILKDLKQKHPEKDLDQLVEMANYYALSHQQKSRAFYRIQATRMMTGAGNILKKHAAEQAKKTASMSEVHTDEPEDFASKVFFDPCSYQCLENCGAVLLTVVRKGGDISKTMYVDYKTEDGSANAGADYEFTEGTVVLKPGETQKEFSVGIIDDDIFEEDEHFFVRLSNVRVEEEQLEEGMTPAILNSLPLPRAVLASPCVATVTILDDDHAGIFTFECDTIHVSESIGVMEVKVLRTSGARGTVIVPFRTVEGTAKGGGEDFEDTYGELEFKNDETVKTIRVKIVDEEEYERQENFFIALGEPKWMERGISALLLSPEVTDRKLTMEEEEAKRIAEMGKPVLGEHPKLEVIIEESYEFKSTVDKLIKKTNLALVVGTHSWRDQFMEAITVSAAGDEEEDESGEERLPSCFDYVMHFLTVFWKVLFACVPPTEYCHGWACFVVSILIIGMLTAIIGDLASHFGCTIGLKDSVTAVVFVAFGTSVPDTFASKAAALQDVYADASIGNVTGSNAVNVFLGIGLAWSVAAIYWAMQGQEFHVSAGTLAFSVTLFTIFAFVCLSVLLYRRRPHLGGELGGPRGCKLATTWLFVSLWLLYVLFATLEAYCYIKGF

O=C1CN=C(c2ccccc2Cl)c2cc([N+](=O)[O-])ccc2N1CN1CCCC1 [Compound 1, 5-(2-Chlorophenyl)-7-nitro-1-(pyrrolidin-1-ylmethyl)-1H-benzo[e][1,4]diazepin-2(3H)-one]
Effect on NCX1 activity in the reverse mode (screening, in words) (NCX1 [1]): selective NCX1 activator | Fluo-experiments on BHK-NCX1 (NCX1 [1]): 128±1.3 | Fluo-experiments on BHK-NCX3 (NCX3 [2]): 100 | Fura2-experiments on BHK-NCX1 (dose/effect) (NCX1 [3]; 1nM): 120±1.3 % of controls | Fura2-experiments on BHK-NCX1 (dose/effect) (NCX1 [3]; 10nM): 178±2.3 % of controls | Fura2-experiments on BHK-NCX1 (dose/effect) (NCX1 [3]; 10µM): 190±2.1 % of controls | Patch-clamp-experiments on BHK-NCX1, forward mode (NCX1 [4]): 206±2% | Patch-clamp-experiments on BHK-NCX1, reverse mode (NCX1 [4]): 305±3% | Neuroprotection in cortical neurons exposed to OGD + RX (in words) [5]: showed a neuroprotective profile | Neuroprotection: cell viability after OGD + RX ([5]; compound 10 nM added during OGD and RX, OGDrx alone 57, normoxic control 100): 71±0.8 % of control | Neuroprotection when preincubated and removed during OGD and RX (in words) ([5]; preincubated, then removed during OGD + RX): continued to protect neurons from hypoxic conditions | Neuroprotection: cell viability after chemical hypoxia + RX (primary cortical neurons; compound 10 nM during chemical hypoxia (45 min) and RX (3 h), chemical Hyp alone 34, control 100): 46±1.5 % of control | Neuroprotection in cortical neurons exposed to chemical hypoxia + RX (in words) (primary cortical neurons; compound 1 at 10 nM): significantly reduced cell suffering

O=C1CN=C(c2ccccc2)c2cc([N+](=O)[O-])ccc2N1CCN1CCCC1 [Compound 4, 7-Nitro-5-phenyl-1-[2-(pyrrolidin-1-yl)ethyl]-1H-benzo[e][1,4]diazepin-2(3H)-one]
Effect on NCX1 activity in the reverse mode (screening, in words) (NCX1 [1]): selective NCX1 inhibitor | Fluo-experiments on BHK-NCX1 (NCX1 [1]): 80±2 | Fluo-experiments on BHK-NCX3 (NCX3 [2]): 100 | IC50 (NCX1 [3]): 10 µM | Fura2-experiments on BHK-NCX1 (dose/effect), inhibition (NCX1 [3]; 1nM): 98±1.3 % of controls | Fura2-experiments on BHK-NCX1 (dose/effect), inhibition (NCX1 [3]; 10nM): 97±0.3 % of controls | Fura2-experiments on BHK-NCX1 (dose/effect), inhibition (NCX1 [3]; 10µM): 41±2.1 % of controls | Fura2-experiments on BHK-NCX1 (dose/effect), inhibition (NCX1 [3]; 30µM): 9±0.5 % of controls | Patch-clamp-experiments on BHK-NCX1, forward mode (NCX1 [4]; compound 4 at 10 μM (Figure 5)): 85±2.1 | Patch-clamp-experiments on BHK-NCX1, reverse mode (NCX1 [4]; compound 4 at 10 μM (Figure 5)): 58±1.1 | Effect on NCX activity in BHK-NCX3 cells (in words) (NCX3 [6]): failed to modulate | melting point: 70 to 71 °C

CC1CCCCN1C(=O)CN1C(=O)CN=C(c2ccccc2)c2cc([N+](=O)[O-])ccc21 (stereo not shown) [Compound 14, 1-[2-(2-Methylpiperidin-1-yl)-2-oxoethyl]-7-nitro-5-phenyl-1H-benzo[e][1,4]-diazepin-2(3H)-one]
EC50 (NCX1 [3]): 3.5 nM | EC50 (NCX3 [7]): 2000 nM | Neuroprotection in cortical neurons exposed to OGD + RX (in words) [5]: lack of neuroprotection
